Series [1] has as its target cytochrome P450 2C8 (Homo sapiens (Human), UniProt P10632). As to the kind of experiment: biochemical.
The target of series [2] is T1, neutrophil elastase (Homo sapiens (Human), UniProt P08246). As to the kind of experiment: biochemical.
Series [3] concerns the target T1, neutrophil elastase. As to the kind of experiment: biochemical. It counts as biochemical. The following applies: read-out: IC50.
Procedure: Human Neutrophil Elastase Assay
All other materials were of the highest grade commercially available.
The following buffers were used: Compound buffer: 100 mM Tris, 500 mM NaCl, adjusted to pH 7.5; Assay buffer: 100 mM Tris, 500 mM NaCl, adjusted to pH 7.5, containing 0.01% BSA.
Assay conditions: Test compounds were prediluted in DMSO and subsequently in compound buffer (5% DMSO final). […] After inactivation of the enzyme, fluorescence intensities were measured at 380 nm excitation and 460 nm emission wavelengths.
Each plate contains wells with a high value control (DMSO+enzyme+substrate) and wells with a low value control (DMSO+inactivated enzyme+substrate). IC50 values were estimated using a sigmoidal concentration response curve with variable slope. Means of low values were taken as 0%, means of high values as 100%.
Series [4] addresses hERG potassium channel (Homo sapiens (Human), UniProt Q12809). As to the kind of experiment: in vitro.
Series [5] is described as follows: Metabolic stability with human liver microsomes. It counts as in vitro ADME. The following applies: human, pooled human liver microsomes, pH 7.6, pooled human liver microsomes, 1 μM test compound, 37° C.; read-out: t1/2 INVITRO.
The subject of series [6] is Caco-2 cells. As to the kind of experiment: in vitro. It counts as in vitro ADME. The note with it: pH 7.2.
Series [7] is described as follows: physchem. The format is physicochemical. The following applies: McIlvaine buffer pH 6.8 containing 2.5% DMSO, pH 6.8, aqueous buffer, kinetic from dmso stock, McIlvaine buffer pH 6.8, 2.5% DMSO, 24 h.
For series [8], the target named is cytochrome P450 2C19 (Homo sapiens (Human), UniProt P33261). As to the kind of experiment: biochemical.
Sequence of cytochrome P450 2C19 (P33261 whole entry, looked up): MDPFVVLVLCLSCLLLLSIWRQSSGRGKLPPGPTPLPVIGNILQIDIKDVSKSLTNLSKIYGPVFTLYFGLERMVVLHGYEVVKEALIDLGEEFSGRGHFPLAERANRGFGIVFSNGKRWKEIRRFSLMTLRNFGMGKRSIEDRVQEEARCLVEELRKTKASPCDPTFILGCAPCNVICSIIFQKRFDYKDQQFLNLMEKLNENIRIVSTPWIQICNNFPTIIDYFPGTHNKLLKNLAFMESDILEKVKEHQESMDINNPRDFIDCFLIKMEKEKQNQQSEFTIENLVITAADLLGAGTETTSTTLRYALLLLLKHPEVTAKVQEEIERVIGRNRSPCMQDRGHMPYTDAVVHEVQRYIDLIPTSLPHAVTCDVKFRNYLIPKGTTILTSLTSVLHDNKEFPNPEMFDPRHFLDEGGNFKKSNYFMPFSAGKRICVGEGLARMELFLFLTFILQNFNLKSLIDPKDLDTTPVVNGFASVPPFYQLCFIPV
Series [9] concerns human hepatocytes. The series is described as follows: Metabolic stability with human hepatocytes. It counts as in vitro ADME. The following applies: well stirred model. The protocol: Assay for the Determination of Metabolic Stability with Human Hepatocytes
The metabolic degradation of the test compound is assayed in a human hepatocyte suspension. Human hepatocytes (typically cryopreserved) are incubated in an appropriate buffer system (e.g. Dulbecco's modified eagle medium plus […]/500 mL, 2.5 mg insulin/500 mL and 3.75 mg/500 mL hydrocortison) containing 5% species serum. Following a (typically) 30 min preincubation in an incubator (37° C., 10% CO2), 5 μl of test compound solution (80 μM; from 2 mM stock solution in DMSO diluted 1:25 with medium) are added into 395 μl hepatocyte suspension (cell density in the range 0.25-5*10^6 cells/mL, typically 1*10^6 cells/mL; final concentration of test compound 1 μM, final DMSO concentration 0.05%). The cells are incubated for six hours (incubator, orbital shaker) and samples (25 μl) are taken at 0, 0.5, 1, 2, 4 and 6 hours. Samples are transferred into acetonitrile and pelleted by centrifugation (5 min). […] The decline of parent compound is analyzed by LC-MS/MS.
The intrinsic clearance CL_[…] is calculated as follows: CL_[…]=Dose/AUC=(C0/CD)/(AUD+clast/k)*1′000/60 (C0: initial concentration in the incubation […], CD: cell density of vital cells [10^6 cells/mL], AUD: area under the data [μM*h], clast: concentration of last data point [μM], k: slope of the regression line for parent decline [h^−1]) […]

Series [10] has as its target cytochrome P450 2C9 (Homo sapiens (Human), UniProt P11712). As to the kind of experiment: biochemical.

≈ marks a conversion by molar mass, not a printed value.

T1 sequence (P08246 whole entry, looked up): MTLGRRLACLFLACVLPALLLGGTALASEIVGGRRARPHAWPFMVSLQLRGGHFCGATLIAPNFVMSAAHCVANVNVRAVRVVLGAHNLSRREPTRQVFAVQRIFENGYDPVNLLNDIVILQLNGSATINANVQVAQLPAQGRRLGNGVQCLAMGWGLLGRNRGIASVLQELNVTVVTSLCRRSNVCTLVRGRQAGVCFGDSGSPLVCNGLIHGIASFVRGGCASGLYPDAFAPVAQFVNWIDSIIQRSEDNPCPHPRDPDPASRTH
Sequence of cytochrome P450 2C9 (P11712 whole entry, looked up): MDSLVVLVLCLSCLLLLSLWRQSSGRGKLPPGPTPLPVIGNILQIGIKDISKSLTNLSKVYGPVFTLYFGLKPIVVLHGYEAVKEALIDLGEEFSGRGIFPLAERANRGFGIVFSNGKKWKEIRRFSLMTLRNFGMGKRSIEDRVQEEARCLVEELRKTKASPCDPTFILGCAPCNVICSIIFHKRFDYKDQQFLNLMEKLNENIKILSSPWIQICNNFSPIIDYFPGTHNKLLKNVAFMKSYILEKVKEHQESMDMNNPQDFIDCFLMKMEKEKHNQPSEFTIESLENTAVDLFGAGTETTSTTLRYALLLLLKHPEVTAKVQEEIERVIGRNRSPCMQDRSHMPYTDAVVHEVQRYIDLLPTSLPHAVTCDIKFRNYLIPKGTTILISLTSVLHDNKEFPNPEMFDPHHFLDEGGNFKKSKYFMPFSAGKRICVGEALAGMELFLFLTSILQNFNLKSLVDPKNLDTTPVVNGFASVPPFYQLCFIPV
Sequence of cytochrome P450 2C8 (P10632 whole entry, looked up): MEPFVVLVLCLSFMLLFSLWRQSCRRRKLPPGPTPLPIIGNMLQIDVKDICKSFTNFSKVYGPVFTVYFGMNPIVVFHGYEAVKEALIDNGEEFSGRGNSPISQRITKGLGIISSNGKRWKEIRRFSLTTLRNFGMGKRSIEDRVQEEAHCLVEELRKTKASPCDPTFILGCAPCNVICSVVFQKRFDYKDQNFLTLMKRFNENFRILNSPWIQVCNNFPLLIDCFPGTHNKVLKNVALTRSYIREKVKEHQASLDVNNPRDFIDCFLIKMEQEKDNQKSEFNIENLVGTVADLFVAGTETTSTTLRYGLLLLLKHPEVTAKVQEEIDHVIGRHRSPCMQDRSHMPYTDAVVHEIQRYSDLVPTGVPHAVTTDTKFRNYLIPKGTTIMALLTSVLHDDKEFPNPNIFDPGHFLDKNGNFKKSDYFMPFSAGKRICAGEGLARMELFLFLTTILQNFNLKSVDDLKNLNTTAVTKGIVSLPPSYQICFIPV

For the molecule `CN1C(=O)N(c2cccc(C(F)(F)F)c2)C2=C(C(=O)CC2)[C@H]1c1ccc(C#N)cc1[S+](C)[O-]` (single isomer, unassigned) [Example C.2A, 3-Methanesulfinyl-4-[3-methyl-2,5-dioxo-1-(3-trifluoromethyl-phenyl)-2,3,4,5,6,7-hexahydro-1H-cyclopentapyrimidin-4-yl]-benzonitrile], the IC50 is above 50 µM in series [1], below 0.001 µM in series [3], above 50 µM in [8] and above 50 µM in series [10]. It took 0.002 µM to reach a half-maximal effect in [2] (EC50). Further, in series [4], 10 µM produced 7% inhibition. The half-life at 1 μM in [5] was above 2.17 h. In series [6], this molecule gave a PEAB of 13 ×10⁻⁶ cm/s. The molecule further came in with a PEBA in series [6] of 73 ×10⁻⁶ cm/s. For the same molecule, the concentration in solution in series [7] (solubility at 24 h) came to 58 µg/mL (≈ 122 µM). The “predicted hepatic in vivo blood clearance” value in series [9] was 3 % human hepatic blood flow.
